Measurements as given in patent publication US20220125771A1, “S[…], ANALOGUES THEREOF, AND METHODS USING SAME” (priority 2019, published 2022).
Read-outs that look alike come from different tables or passages of the source.

Tested on: HBsAg in HepG2.2.15 cells
Assay: HBsAg Assay: inhibition of HBsAg in HepG2.2.15 cells (CLIA immunoassay of supernatant)
Assay type: cell-based, hepatitis B virus
Details: supernatant collected at day 6 after exposure of compounds, final DMSO 0.5%
Protocol: Inhibition of HBsAg was determined in HepG2.2.15 cells. Cells were maintained in culture medium containing 10% fetal calf serum, […], Glutamine, penicillin/streptomycin. Cells were seeded in 96-well collagen-coated plate at a density of 30,000 cells/well. Serially diluted compounds were added to cells next day at the final DMSO concentration of 0.5%. Cells were incubated with compounds for 2-3 days, after which medium was removed. Fresh medium containing compounds was added to cells for additional 3-4 days. At day 6 after exposure of compounds, supernatant was collected, the HBsAg immunoassay (microplate-based chemiluminescence immunoassay kits, CLIA, Autobio Diagnosics Co., Zhengzhou, China, Catalog #CL0310-2) was used to determine the level of HBsAg according to manufactory instruction. Dose-response curves were generated and the EC50 value (effective concentrations that achieved 50% inhibitory effect) were determined using XLfit software. In addition, cells were seeded at a density of 5,000 cells/well for determination of cell viability in the presence and absence of compounds by using CellTiter-Glo reagent (Promega). Tables 1-3 show EC50 values obtained by the HBsAg assay for selected compounds.

[1] = Hepatitis B virus, HepG2.2.15, 144 h, read-out: sAg EC50, μM, HepG2.2.15 cells
[2] = read-out: sAg EC50, HepG2.2.15 cells

With `COCCOc1cccc2c1cc1n2CC(C(C)(C)C)c2c-1[nH]c(=O)c(C(=O)O)c2O` (stereo not shown) [Example 6, 5-(tert-Butyl)-4-hydroxy-11-(2-methoxyethoxy)-2-oxo-1,2,5,6-tetrahydroindolo[1,2-h][1,7] naphthyridine-3-carboxylic Acid] as the compound, how does the EC50 [1] read?
The EC50 was 0.76 µM.

For `Cn1c2c(cc(C(=O)O)c1=O)C(C(C)(C)C)Cc1c-2cc(OC(F)F)c2ncccc12` (single isomer, unassigned) [Example 40, 6-(tert-Butyl)-12-(difluoromethoxy)-10-methyl-9-oxo-5,6,9,10-tetrahydroquinolino[7,8-f]quinoline-8-carboxylic Acid], which EC50 [2] is on record?
Its EC50 is 0.2 µM.

Which EC50 [2] does the source give for `CC(C)(C)C1Cc2c(nc3c(OC(F)F)cccn23)-c2[nH]c(=O)c(C(=O)O)c(O)c21` (single isomer, unassigned) [Example 8, 5-(tert-Butyl)-11-(difluoromethoxy)-4-hydroxy-2-oxo-1,2,5,6-tetrahydropyrido[2′,1′:2,3]imidazo[4,5-h]quinoline-3-carboxylic Acid] here?
Its EC50 is 0.22 µM.

Which EC50 [1] does the source give for `CC(C)(C)C1Cn2c(nc3c(OC(F)F)cccc32)-c2[nH]c(=O)c(C(=O)O)cc21` (stereo not shown) [Example 26, 5-(tert-Butyl)-11-(difluoromethoxy)-2-oxo-1,2,5,6-tetrahydrobenzo[4,5]imidazo[1,2-h][1,7]naphthyridine-3-carboxylic Acid] here?
Its EC50 is 0.057 µM.

`CN1CCCc2c3c(cc(OC(F)F)c21)-c1[nH]c(=O)c(C(=O)O)cc1C(C(C)(C)C)C3` (single isomer, unassigned) [Example 32, 6-(tert-Butyl)-12-(difluoromethoxy)-1-methyl-9-oxo-1,2,3,4,5,6,9,10-octahydroquinolino[7,8-f]quinoline-8-carboxylic Acid] was tested. Which EC50 [2] did it give?
The EC50 was 0.002 µM.

Which EC50 [2] does the source give for `COc1cccc2c1nc1n2CC(C(C)(C)C)c2cc(C(=O)O)c(=O)[nH]c2-1` (single isomer, unassigned) [Example 28, 5-(tert-Butyl)-11-methoxy-2-oxo-1,2,5,6-tetrahydrobenzo[4,5]imidazo[1,2-h][1,7]naphthyridine-3-carboxylic Acid] here?
The EC50 was 0.093 µM.

For `CC(C)(C)C1Cc2c(cc(OC(F)F)c3ncccc23)-c2[nH]c(=O)c(C(=O)O)cc21` (single isomer, unassigned) [Example 37, 6-(tert-Butyl)-12-(difluoromethoxy)-9-oxo-5,6,9,10-tetrahydroquinolino[7,8-f]quinoline-8-carboxylic Acid], which EC50 [2] is on record?
Its EC50 is 0.003 µM.

`COc1nc2c(c3ccccc13)CC(C(C)(C)C)c1cc(C(=O)O)c(=O)n(C)c1-2` (stereo not shown) [Example 43, 12-(tert-Butyl)-6-methoxy-4-methyl-3-oxo-3,4,11,12-tetrahydrobenzo[c][1,10]phenanthroline-2-carboxylic Acid] was tested. Which EC50 [1] did it give?
The EC50 was 0.023 µM.

`COc1ccn2c3c(nc2c1OC)-c1c(cc(C(=O)O)c(=O)n1C)C(C(C)(C)C)C3` (single isomer, unassigned) [Example 23, 5-(tert-butyl)-10,11-dimethoxy-1-methyl-2-oxo-1,2,5,6-tetrahydropyrido[2′,1′:2,3]imidazo[4,5-h]quinoline-3-carboxylic Acid] was tested. Which EC50 [2] did it give?
Its EC50 is 0.011 µM.

For `CC(=O)N1CCCc2c3c(cc(OC(F)F)c21)-c1[nH]c(=O)c(C(=O)O)cc1C(C(C)(C)C)C3` (stereo not shown) [Example 31, 1-Acetyl-6-(tert-butyl)-12-(difluoromethoxy)-9-oxo-1,2,3,4,5,6,9,10-octahydroquinolino[7,8-f]quinoline-8-carboxylic Acid], which EC50 [1] is on record?
Its EC50 is 0.05 µM.

Which EC50 [2] does the source give for `CC(C)(C)C1Cc2c(nc3c(OC(F)F)cccn23)-c2[nH]c(=O)c(C(=O)O)c(O)c21` (single isomer, unassigned) [Example 7, 5-(tert-Butyl)-11-(difluoromethoxy)-4-hydroxy-2-oxo-1,2,5,6-tetrahydropyrido[2′,1′:2,3]imidazo[4,5-h]quinoline-3-carboxylic Acid] here?
The EC50 was 0.002 µM.

`CCOc1cccc2c1cc1n2CC(C(C)(C)C)c2c-1[nH]c(=O)c(C(=O)O)c2O` (stereo not shown) [Example 5, 5-(tert-Butyl)-11-ethoxy-4-hydroxy-2-oxo-1,2,5,6-tetrahydroindolo[1,2-h]naphthyridine-3-carboxylic Acid] was tested. Which EC50 [1] did it give?
Its EC50 is 0.13 µM.

With `CC(C)C1Cc2c(nc3c(OC(F)F)cccn23)-c2[nH]c(=O)c(C(=O)O)cc21` (single isomer, unassigned) [Example 12, 11-(Difluoromethoxy)-5-isopropyl-2-oxo-1,2,5,6-tetrahydropyrido[2′,1′:2,3]imidazo[4,5-h]quinoline-3-carboxylic Acid] as the compound, how does the EC50 [2] read?
The EC50 was 0.018 µM.

With `COc1c(C(=O)O)c(=O)c2c(n1C)-c1cc(OC(F)F)c3ncccc3c1CC2C(C)(C)C` (stereo not shown) [Example 46, 6-(tert-Butyl)-12-(difluoromethoxy)-9-methoxy-10-methyl-7-oxo-5,6,7,10-tetrahydroquinolino[7,8-f]quinoline-8-carboxylic Acid] as the compound, how does the EC50 [1] read?
The EC50 was 0.3 µM.

`COc1cccc2c1cc1n2CC(C(C)(C)C)c2c-1[nH]c(=O)c(C(=O)O)c2O` (stereo not shown) [Example 4, 5-(tert-Butyl)-4-hydroxy-11-methoxy-2-oxo-1,2,5,6-tetrahydroindolo[1,2-h][1,7]naphthyridine-3-carboxylic Acid] was tested. Which EC50 [1] did it give?
The EC50 was 0.13 µM.

Which EC50 [2] does the source give for `Cn1c2c(cc(C(=O)O)c1=O)C(C(C)(C)C)Cc1c-2nc(Cl)c2ccccc12` (single isomer, unassigned) [Example 45, 12-(tert-Butyl)-6-chloro-4-methyl-3-oxo-3,4,11,12-tetrahydrobenzo[c][1,10]phenanthroline-2-carboxylic Acid] here?
Its EC50 is 1 µM.

With `COCCCN1CCCc2c3c(cc(OC(F)F)c21)-c1[nH]c(=O)c(C(=O)O)cc1C(C(C)(C)C)C3` (stereo not shown) [Example 30, 6-(tert-Butyl)-12-(difluoromethoxy)-1-(3-methoxypropyl)-9-oxo-1,2,3,4,5,6,9,10-octahydroquinolino[7,8-f]quinoline-8-carboxylic Acid] as the compound, how does the EC50 [1] read?
Its EC50 is 0.2 µM.

With `COc1ccn2c3c(nc2c1OC)-c1[nH]c(=O)c(C(=O)O)cc1C(C(C)(C)C)C3` (single isomer, unassigned) [Example 18, 5-(tert-Butyl)-10,11-dimethoxy-2-oxo-1,2,5,6-tetrahydropyrido[2′,1′:2,3]imidazo[4,5-h]quinoline-3-carboxylic Acid] as the compound, how does the EC50 [2] read?
Its EC50 is 0.005 µM.

`CC(C)(C)C1Cn2c(cc3c(OC(F)F)cccc32)-c2[nH]c(=O)c(C(=O)O)c(O)c21` (single isomer, unassigned) [Example 3, 5-(tert-Butyl)-11-(difluoromethoxy)-4-hydroxy-2-oxo-1,2,5,6-tetrahydroindolo[1,2-h][1,7]naphthyridine-3-carboxylic Acid] was tested. Which EC50 [2] did it give?
The EC50 was 0.005 µM.

`COc1cc2c(c3cccnc13)CC(C(C)(C)C)c1cc(C(=O)O)c(=O)[nH]c1-2` (single isomer, unassigned) [Example 35, 6-(tert-Butyl)-12-methoxy-9-oxo-5,6,9,10-tetrahydroquinolino[7,8-f]quinoline-8-carboxylic Acid] was tested. Which EC50 [2] did it give?
The EC50 was 0.027 µM.

For `CC(C)C1Cc2cc(C(=O)O)c(=O)[nH]c2-c2nc3c(OC(F)F)cccn3c21` (single isomer, unassigned) [Example 21, 11-(Difluoromethoxy)-6-isopropyl-2-oxo-1,2,5,6-tetrahydropyrido[2′,1′:2,3]imidazo[4,5-h]quinoline-3-carboxylic Acid], which EC50 [2] is on record?
The EC50 was 6 µM.

For `COc1cccc2c1nc1n2CC(C(C)(C)C)c2c-1[nH]c(=O)c(C(=O)O)c2O` (stereo not shown) [Example 24, 5-(tert-Butyl)-4-hydroxy-11-methoxy-2-oxo-1,2,5,6-tetrahydrobenzo[4,5]imidazo[1,2-h][1,7]naphthyridine-3-carboxylic Acid], which EC50 [1] is on record?
Its EC50 is 0.02 µM.

Which EC50 [2] does the source give for `CC(C)(C)C1Cn2c(cc3c(OC(F)F)cccc32)-c2[nH]c(=O)c(C(=O)O)c(O)c21` (single isomer, unassigned) [Example 2, 5-(tert-Butyl)-11-(difluoromethoxy)-4-hydroxy-2-oxo-1,2,5,6-tetrahydroindolo[1,2-h][1,7]naphthyridine-3-carboxylic Acid] here?
Its EC50 is 1 µM.

Which EC50 [2] does the source give for `COc1cccn2c3c(nc12)-c1[nH]c(=O)c(C(=O)O)cc1C(C(C)C)C3` (single isomer, unassigned) [Example 17, 5-Isopropyl-11-methoxy-2-oxo-1,2,5,6-tetrahydropyrido[2′,1′:2,3]imidazo[4,5-h]quinoline-3-carboxylic Acid] here?
The EC50 was 10 µM.

How did the EC50 [2] turn out when `Cn1c2c(cc(C(=O)O)c1=O)C(C(C)(C)C)Cc1c-2cc(OC(F)F)c2ncccc12` (single isomer, unassigned) [Example 39, 6-(tert-Butyl)-12-(difluoromethoxy)-10-methyl-9-oxo-5,6,9,10-tetrahydroquinolino[7,8-f]quinoline-8-carboxylic Acid] was run?
Its EC50 is 10 µM.
